Measurements taken from ChEMBL document CHEMBL5365497, “Developing Novel Coumarin-Containing Azoles Antifungal Agents by the Scaffold Merging Strategy for Treating Azole-Resistant Candidiasis” (J Med Chem, 2023).
Converted amounts (≈) assume the structure as drawn. The source made the active and inactive calls. The rule behind the calls is not given here.

What was measured:
Candida albicans [1] = experiment: Antifungal activity against Candida albicans CPCC400616 assessed as fungal growth inhibition by CLSI based microdilution method; assay type: functional
Candida albicans [2] = experiment: Antifungal activity against Candida albicans SC5314 assessed as fungal growth inhibition by CLSI based microdilution method; assay type: functional
Candida parapsilosis = experiment: Antifungal activity against Candida parapsilosis assessed as fungal growth inhibition by CLSI based microdilution method; assay type: functional; conditions: Lodderomyces parapsilosis
Nakaseomyces glabratus = experiment: Antifungal activity against Candida glabrata assessed as fungal growth inhibition by CLSI based microdilution method; assay type: functional
Pichia kudriavzevii = experiment: Antifungal activity against Pichia kudriavzevii assessed as fungal growth inhibition by CLSI based microdilution method; assay type: functional
Candida tropicalis = experiment: Antifungal activity against Candida tropicalis assessed as fungal growth inhibition by CLSI based microdilution method; assay type: functional
Cryptococcus neoformans = experiment: Antifungal activity against Cryptococcus neoformans assessed as fungal growth inhibition by CLSI based microdilution method; assay type: functional
Candida albicans [3] = experiment: Antifungal activity against Candida albicans SC5314 assessed as destruction of cell membrane at 16 ug/ml incubated for 24 hrs by TEM analysis; assay type: functional, organism-based; conditions: dose 16.0 µg/ml
Candida albicans [4] = experiment: Antifungal activity against Candida albicans SC5314 assessed as fragmented nuclei at 16 ug/ml incubated for 24 hrs by TEM analysis; assay type: functional, organism-based; conditions: dose 16.0 µg/ml
Candida albicans [5] = experiment: Antifungal activity against Candida albicans SC5314 assessed as destruction of cell wall at 16 ug/ml incubated for 24 hrs by TEM analysis; assay type: functional, organism-based; conditions: dose 16.0 µg/ml
Candida albicans [6] = experiment: Antifungal activity against fluconazole-resistant Candida albicans CaR assessed as fungal growth inhibition by CLSI based microdilution method; assay type: functional
Candida albicans [7] = experiment: Antifungal activity against fluconazole-resistant Candida albicans 17# assessed as fungal growth inhibition by CLSI based microdilution method; assay type: functional
Candida albicans [8] = experiment: Antifungal activity against fluconazole-resistant Candida albicans 632 assessed as fungal growth inhibition by CLSI based microdilution method; assay type: functional
Candida albicans [9] = experiment: Antifungal activity against fluconazole-resistant Candida albicans 904 assessed as fungal growth inhibition by CLSI based microdilution method; assay type: functional
Candida albicans [10] = experiment: Antifungal activity against fluconazole-resistant Candida albicans 901 assessed as fungal growth inhibition by CLSI based microdilution method; assay type: functional
Candida albicans [11] = experiment: Antifungal activity against fluconazole-resistant Candida albicans 904 assessed as fungal growth inhibition measured for 48 hrs by CLSI based microdilution method; assay type: functional
[12] = molecular target: T1, Lanosterol 14-alpha demethylase (Candida albicans (strain SC5314 / ATCC MYA-2876) (Yeast), UniProt P10613); experiment: Inhibition of CYP51 in Candida albicans SC5314 assessed as ergosterol level at 0.03125 ug/ml incubated for 24 hrs by GC-MS analysis (reference value: 97.58 %); design: scale not given: the % may be the effect or the level left; conditions: at 0.03125 µg/mL
[13] = molecular target: T1, Lanosterol 14-alpha demethylase; experiment: Inhibition of CYP51 in Candida albicans SC5314 assessed as increase in eburicol level at 0.03125 ug/ml incubated for 24 hrs by GC-MS analysis; conditions: at 0.03125 µg/mL
[14] = molecular target: T1, Lanosterol 14-alpha demethylase; experiment: Inhibition of CYP51 in Candida albicans SC5314 assessed as increase in obtusifoliol level at 0.03125 ug/ml incubated for 24 hrs by GC-MS analysis; conditions: at 0.03125 µg/mL
[15] = molecular target: T1, Lanosterol 14-alpha demethylase; experiment: Inhibition of CYP51 in Candida albicans SC5314 assessed as increase in lanosterol level at 0.03125 ug/ml incubated for 24 hrs by GC-MS analysis; conditions: at 0.03125 µg/mL
Candida albicans [16] = experiment: Antifungal activity against Candida albicans CPCC400616 assessed as inhibition of yeast to hypha morphological transition at 2 ug/ml incubated for 4 hrs by inverted microscopy; assay type: functional, organism-based; conditions: dose 2.0 µg/ml
Candida albicans [17] = experiment: Antifungal activity against fluconazole-resistant Candida albicans 904 assessed as inhibition of yeast to hypha morphological transition at 16 ug/ml incubated for 4 hrs by inverted microscopy; assay type: functional, organism-based; conditions: dose 16.0 µg/ml
Candida albicans [18] = experiment: Antibiofilm activity against Candida albicans CPCC400616 incubated for 24 hrs by XTT reduction assay; assay type: functional, organism-based; conditions: dose <= 128.0 µg/ml
Candida albicans [19] = experiment: Antibiofilm activity against fluconazole-resistant Candida albicans 904 incubated for 24 hrs by XTT reduction assay; assay type: functional, organism-based; conditions: dose <= 128.0 µg/ml
Candida albicans [20] = experiment: Antifungal activity against Candida albicans CPCC400616 assessed as reduction in EFG1 expression at 2 ug/ml incubated for 12 hrs by RT-PCR analysis; assay type: functional, organism-based; conditions: dose 2.0 µg/ml
Candida albicans [21] = experiment: Antifungal activity against fluconazole-resistant Candida albicans 904 assessed as reduction in EFG1 expression at 16 ug/ml incubated for 12 hrs by RT-PCR analysis; assay type: functional, organism-based; conditions: dose 16.0 µg/ml
Candida albicans [22] = experiment: Antifungal activity against Candida albicans CPCC400616 assessed as reduction in TEC1 expression at 2 ug/ml incubated for 12 hrs by RT-PCR analysis; assay type: functional, organism-based; conditions: dose 2.0 µg/ml
Candida albicans [23] = experiment: Antifungal activity against fluconazole-resistant Candida albicans 904 assessed as reduction in TEC1 expression at 16 ug/ml incubated for 12 hrs by RT-PCR analysis; assay type: functional, organism-based; conditions: dose 16.0 µg/ml
Candida albicans [24] = experiment: Antifungal activity against Candida albicans CPCC400616 assessed as reduction in CPH1 expression at 2 ug/ml incubated for 12 hrs by RT-PCR analysis; assay type: functional, organism-based; conditions: dose 2.0 µg/ml
Candida albicans [25] = experiment: Antifungal activity against fluconazole-resistant Candida albicans 904 assessed as reduction in CPH1 expression at 16 ug/ml incubated for 12 hrs by RT-PCR analysis; assay type: functional, organism-based; conditions: dose 16.0 µg/ml
Candida albicans [26] = experiment: Antifungal activity against Candida albicans CPCC400616 assessed as reduction in ALS3 expression at 2 ug/ml incubated for 12 hrs by RT-PCR analysis; assay type: functional, organism-based; conditions: dose 2.0 µg/ml
Candida albicans [27] = experiment: Antifungal activity against fluconazole-resistant Candida albicans 904 assessed as reduction in ALS3 expression at 16 ug/ml incubated for 12 hrs by RT-PCR analysis; assay type: functional, organism-based; conditions: dose 16.0 µg/ml
Candida albicans [28] = experiment: Antifungal activity against fluconazole-resistant Candida albicans 904 assessed as decrease in ERG11 expression at 16 ug/ml measured after 16 hrs by RT-PCR analysis; assay type: functional, organism-based; conditions: dose 16.0 µg/ml
Candida albicans [29] = experiment: Antifungal activity against fluconazole-resistant Candida albicans 904 assessed as decrease in CDR1 expression at 16 ug/ml measured after 16 hrs by RT-PCR analysis; assay type: functional, organism-based; conditions: dose 16.0 µg/ml
Candida albicans [30] = experiment: Antifungal activity against fluconazole-resistant Candida albicans 904 assessed as decrease in CDR2 expression at 16 ug/ml measured after 16 hrs by RT-PCR analysis; assay type: functional, organism-based; conditions: dose 16.0 µg/ml
Candida albicans [31] = experiment: Antifungal activity against fluconazole-resistant Candida albicans 904 assessed as decrease in MDR1 expression at 16 ug/ml measured after 16 hrs by RT-PCR analysis; assay type: functional, organism-based; conditions: dose 16.0 µg/ml
Candida albicans [32] = experiment: Induction of ROS production in fluconazole-resistant Candida albicans 904 at 64 ug/ml incubated for 30 mins by fluorescence microscopy; assay type: functional, organism-based; conditions: dose 64.0 µg/ml
[33] = Metabolic stability in mouse liver microsomes assessed as half life incubated for 5 to 60 mins by LC-MS/MS analysis; assay type: ADME, Microsome; conditions: time 5-60 min
[34] = Stability in mouse plasma assessed as compound remaining at 1 uM measured for 180 mins by LC-MS/MS analysis; assay type: ADME, cell-free; conditions: read-out: Stability
[35] = Stability in mouse plasma assessed as half life at 1 uM measured for 180 mins by LC-MS/MS analysis; assay type: ADME, cell-free
[36] = Cytotoxicity against mouse J774.A1 cells assessed as cell growth inhibition by MTT assay; assay type: toxicity, cell-based
[37] = Cytotoxicity against human MRC5 cells assessed as cell growth inhibition by MTT assay; assay type: toxicity, cell-based

T1 sequence (P10613 whole entry): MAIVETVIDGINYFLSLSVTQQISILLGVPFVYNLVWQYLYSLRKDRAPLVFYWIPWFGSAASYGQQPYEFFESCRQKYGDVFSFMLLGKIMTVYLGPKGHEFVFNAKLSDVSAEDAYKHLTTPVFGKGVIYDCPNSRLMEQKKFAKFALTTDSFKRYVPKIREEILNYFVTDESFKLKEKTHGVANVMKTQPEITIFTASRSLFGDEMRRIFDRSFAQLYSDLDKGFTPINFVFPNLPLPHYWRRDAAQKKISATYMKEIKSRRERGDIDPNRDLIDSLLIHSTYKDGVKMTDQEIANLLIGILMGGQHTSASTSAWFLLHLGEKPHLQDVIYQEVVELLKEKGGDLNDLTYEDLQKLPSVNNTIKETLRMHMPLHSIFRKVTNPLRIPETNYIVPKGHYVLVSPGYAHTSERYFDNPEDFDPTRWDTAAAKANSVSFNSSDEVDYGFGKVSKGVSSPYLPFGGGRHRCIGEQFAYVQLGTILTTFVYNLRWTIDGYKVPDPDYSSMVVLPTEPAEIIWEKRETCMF

OC(Cn1cncn1)(Cn1cncn1)c1ccc(F)cc1F [FLUCONAZOLE]
MIC (Candida albicans [1]): 4 µg/mL (≈ 13.1 µM)
MIC (Candida albicans [2]): 0.5 µg/mL (≈ 1.63 µM)
MIC (Candida parapsilosis): 4 µg/mL (≈ 13.1 µM)
MIC (Nakaseomyces glabratus): 32 µg/mL (≈ 104 µM)
MIC (Pichia kudriavzevii): 32 µg/mL (≈ 104 µM)
MIC (Candida tropicalis): 2 µg/mL (≈ 6.53 µM)
MIC (Cryptococcus neoformans): 4 µg/mL (≈ 13.1 µM)
Activity (Candida albicans [3]): Active
Activity (Candida albicans [4]): Active
Activity (Candida albicans [5]): inactive
MIC (Candida albicans [6]): > 128 µg/mL
MIC (Candida albicans [7]): > 128 µg/mL
MIC (Candida albicans [8]): > 128 µg/mL
MIC (Candida albicans [9]): > 128 µg/mL
MIC (Candida albicans [10]): > 128 µg/mL
MFC (Candida albicans [11]): > 128 µg/mL

O=c1ccc2cc(COC(Cn3ccnc3)c3ccc(Cl)cc3Cl)ccc2o1 (centres undefined)
MIC (Candida albicans [1]): 0.06 µg/mL (≈ 0.144 µM)
MIC (Candida albicans [2]): 0.03 µg/mL (≈ 0.0722 µM)
MIC (Candida parapsilosis): < 0.25 µg/mL
MIC (Nakaseomyces glabratus): 0.25 µg/mL (≈ 0.602 µM)
MIC (Pichia kudriavzevii): 0.5 µg/mL (≈ 1.2 µM)
MIC (Candida tropicalis): < 0.25 µg/mL
MIC (Cryptococcus neoformans): 4 µg/mL (≈ 9.63 µM)
Activity [12]: 0.99%
inhibition (INH) [13]: Active
inhibition (INH) [14]: Active
inhibition (INH) [15]: Active
MIC (Candida albicans [6]): 0.5 µg/mL (≈ 1.2 µM)
MIC (Candida albicans [7]): 1 µg/mL (≈ 2.41 µM)
MIC (Candida albicans [8]): 16 µg/mL (≈ 38.5 µM)
MIC (Candida albicans [9]): 8 µg/mL (≈ 19.3 µM)
MIC (Candida albicans [10]): 32 µg/mL (≈ 77.1 µM)
inhibition (Candida albicans [16]): Active
inhibition (Candida albicans [17]): Active
Activity (Candida albicans [18]): Dose-Dependent Effect
Activity (Candida albicans [19]): Dose-Dependent Effect
Activity (Candida albicans [20]): Active
Activity (Candida albicans [21]): Active
Activity (Candida albicans [22]): Active
Activity (Candida albicans [23]): Active
Activity (Candida albicans [24]): Active
Activity (Candida albicans [25]): Active
Activity (Candida albicans [26]): Active
Activity (Candida albicans [27]): Active
Activity (Candida albicans [28]): Active
Activity (Candida albicans [29]): Active
Activity (Candida albicans [30]): Active
Activity (Candida albicans [31]): Active
Activity (Candida albicans [32]): Active
half-life [33]: 6.09 min
remaining at 3 h, 1 µM [34]: 98.7%
half-life at 1 µM [35]: > 360 min
IC50 [36]: 24.4 µM
IC50 [37]: 78.2 µM
